Results from patent US20140363530A1, “COMPOSITION COMPRISING THE EXTRACT OF PINE TREE LEAF OR THE COMPOUNDS ISOLATED THEREFROM FOR THE PREVENTION AND TREATMENT OF CANCER DISEASE BY INHIBITING HPV VIRUS AND THE USES THEREBY” (priority 2012, published 2014).
Converted amounts (≈) assume the structure as drawn. Like-named read-outs stand apart in the source and are kept apart here.

Tests used:
[1] = system: HPV16 PVs; assay: Virus inhibition test (in vitro), SEAP activity of 293TT cells infected with HPV pseudovirion; type: cell-based; details: Human papillomavirus 16, read-out: inhibitory activity from HPV16 PVs
Experimental: Prior to in vitro antiviral assay, 5×10^3 of 293TT cell was seeded on 96-well plate and incubated at 37° C. for 16 hours in 5% CO2 atmosphere. The culture media was removed and each extract was diluted to the concentration of 100 μg/ml or 50 μg/ml to distribute into each cell at the dose of 100 μl/cell. After treating with the extract for 16 hours, the culture media was removed and the cell was washed with PBS twice. The cell was infected by 106RLU/ml of HPV PVs at the dose of 100 μl/cell and incubated for 48 hours at 37° C. in 5% CO2 atmosphere. To determine the viral activity, the supernatant of the cell culture was used for determine the activity of secreted alkaline phosphatase (SEAP) using by Great EscAPE™ SEAP Chemiluminescence Kit (631738, Clontech, CA, USA). To determine the SEAP activity, relative light units (RLU) value was obtained using by Luminescence coulter (Micro beta triLux 1450, PerkinElmer, CT, USA) and the RLU values of the cell treated with the extract and untreated with the extract, were compared with each other. The decrease of SEAP activity was regarded as the inhibition effect against HPV PVs.
To determine the inhibitory effect on luciferase-comprising HPV virus contagion of the test samples prepared in Examples, following test was performed according to the method disclosed in the literature (Shaneyfelt et al., Virology Journal, 3:68, 2006, 1-11; Roden et al., J. Virol., 70, 1996, 5875-5883; Unckell et al., J. Virol., 71, 1997, 2934-2939; Touze et al., Nucleic Acids Research, 26, 1998, 1317-1323; Selinka et al., J. Virol., 77, 2003, 12961-12967; Klasse et al., Journal of General Virology, 83, 2002, 2091-2108)
5×10^3293TT cell was seeded on 96-well plate and incubate for 16 hours. 50 μg of test sample was mixed with the culture media in the concentration of 100 ug/ml and incubated for 16 hours. The media was washed with 100 μl of PBS twice and the cell was infected with 10^6RLU/ml of HPV pseudovirion at the dose of 100 μl/cell to incubate at 37° C., for 48 hours in 5% CO2 atmosphere.
5× lysis buffer in Great EscAPE™ SEAP Chemiluminescence Kit (631738, Clontech, CA, USA) was made to 1× and both of 45 μl of 1× lysis buffer and 15 μl of cell culture medium were added to 96-well plate (3912, Costar, NY, USA). 60 μl of the substrate in Great EscAPE™ SEAP Chemiluminescence kit was added thereto and the relative light units (RLU) value was obtained using by Luminescence coulter (Micro beta triLux 1450, PerkinElmer, CT, USA). The RLU values of the cell treated with the extract and untreated with the extract, were compared with each other and the decrease of SEAP activity was regarded as the inhibition effect against HPV PVs.

[2] = system: MES-SA/DX5 (multidrug resistant carcinoma subline of MES-SA); assay: SRB cytotoxicity test, MES-SA/DX5; type: cell-based, human; details: for IC50: Homo sapiens, MES-SA/Dx5, 48 h, read-out: Cytotoxicity IC50, MES-SA/DX5
Experimental: (§1) To determine the cytotoxicity against human tumor cell line of the test samples prepared in Examples, following sulforhodamin B (SRB) bioassy test was performed according to the method disclosed in the literature (Skehan, P., et al., J. Natl. Cancer Inst., 82, 1990, 1107-1112).
(§2) Various human tumor cell lines, i.e., A-549 (human adenocarcinoma of lung, NCI), SK-OV-3 (human ovarian tumor, NCI), SK-MEL-2 (human malignant melanoma, NCI), HCT15 (human colon adenocarcinoma, NCI), MES-SA (human uterine carcinoma, NCI) and MES-SA/DX5 (multidrug resistant carcinoma subline of MES-SA, NCI) were used in the test.
(§3) The subcultured cell lines were detached from the surface of wall using by trypsin-EDTA solution and adjusted to various concentration of cell lines, i.e., 5×10^3 cells/well (A-549, HCT15), 1×10^4 cells/well (SK-MEL-2), 5×10^3 cells/well (SK-OV-3) in 96-well flat bottom microplate. The inoculated cell lines were incubated in CO2 incubator (MCO-20AIC, SANYO Electric Co., LTd.) to be attached on the bottom of incubator and the culture media was removed with aspirator. 6 logarithmic concentrations of the diluted test samples were added to each well containing cell line at 100 μl/well in a three fold dilution manner and the cell was incubated for 48 hours. The culture media in each well was removed and 100μ of 10% trichloroacetic acid was added thereto to be left alone at 4° C. for 1 hour and to fix the cells to the bottom of the plates. […] The cell plates were shaked with titer plate shaker (KOMA Orbital Shaker KE011, KOMABIOTech) for 10 mins to exude the staining solution and to determine the absorbance at 520 nm using by microplate spectrophotometer (Sunrise, TECAN).

[3] = system: HCT15/CL02; assay: SRB cytotoxicity test, HCT15/CL02; type: cell-based, human; details: Table 4, 48 hours; for IC50: Homo sapiens, HCT-15
Experimental: To determine the cytotoxicity against human tumor cell line of the test samples prepared in Examples, following sulforhodamin B (SRB) bioassy test was performed according to the method disclosed in the literature (Skehan, P., et al., J. Natl. […] The inoculated cell lines were incubated in CO2 incubator (MCO-20AIC, SANYO Electric Co., LTd.) to be attached on the bottom of incubator and the culture media was removed with aspirator. 6 logarithmic concentrations of the diluted test samples were added to each well containing cell line at 100 μl/well in a three fold dilution manner and the cell was incubated for 48 hours. […] The cell plates were shaked with titer plate shaker (KOMA Orbital Shaker KE011, KOMABIOTech) for 10 mins to exude the staining solution and to determine the absorbance at 520 nm using by microplate spectrophotometer (Sunrise, TECAN).

[4] = system: HCT15 (human colon adenocarcinoma); assay: SRB cytotoxicity test, HCT15; type: cell-based; details: for IC50: Homo sapiens, HCT-15, 48 h
Experimental: as §1, §2, §3

[5] = system: MES-SA (human uterine carcinoma); assay: SRB cytotoxicity test, MES-SA; type: cell-based; details: for IC50: Homo sapiens, MES-SA, 48 h
Experimental: as §1, §2, §3

[6] = system: SK-OV-3 (human ovarian tumor); assay: SRB cytotoxicity test, SK-OV-3; type: cell-based; details: for IC50: Homo sapiens, read-out: Cytotoxicity IC50, SK-OV-3
Experimental: as §1, §2, §3

[7] = system: A-549 (human adenocarcinoma of lung); assay: SRB cytotoxicity test, A-549; type: cell-based; details: for IC50: Homo sapiens, read-out: Cytotoxicity IC50, A-549
Experimental: as §1, §2, §3

[8] = system: SK-MEL-2 (human malignant melanoma); assay: SRB cytotoxicity test, SK-MEL-2; type: cell-based; details: for IC50: Homo sapiens, read-out: Cytotoxicity IC50, SK-MEL-2
Experimental: as §1, §2, §3

[9] = Table 4, 48 hours, read-out: Cytotoxicity IC50, HCT15
[10] = Table 4, 48 hours, read-out: Cytotoxicity IC50, MES-SA

CC(C)(O)c1ccc2c(c1)C(=O)C[C@H]1[C@](C)(C(=O)O)CCC[C@]21C [compound (g), 7-oxo-15-hydroxydehydroabietic acid]
inhibition at 50 µg/mL [1]: 70 to 80%
IC50 [2]: > 30 µg/mL
IC50 [3]: > 30 µg/mL
IC50 [4, 9]: > 30 µg/mL
IC50 [5, 10]: > 30 µg/mL

COc1cccc2c1C(=O)c1c(O)c3c(c(O)c1C2=O)C[C@@](O)(C(=O)CO)C[C@@H]3O[C@H]1C[C@H](N)[C@H](O)[C@H](C)O1 [doxorubicin, reference compound]
IC50 ([2]; Table 1, extract and solvent fractions, 48 hours): 0.412 µg/mL (≈ 0.758 µM)
IC50 ([2]; Table 2, purified extracts, 48 hours): 0.412 µg/mL (≈ 0.758 µM)
IC50 ([2]; Table 3, 48 hours): 1.45 µg/mL (≈ 2.67 µM)
IC50 ([2]; Table 4, 48 hours): 1.45 µg/mL (≈ 2.67 µM)
IC50 ([6]; SK-OV-3, 48 h): 0.0104 µg/mL (≈ 0.0191 µM)
IC50 [3]: 2.11 µg/mL (≈ 3.88 µM)
IC50 ([4]; read-out: Cytotoxicity IC50, HCT15, Table 3, 48 hours): 0.0833 µg/mL (≈ 0.153 µM)
IC50 ([4]; read-out: Cytotoxicity IC50, HCT15, Table 4, 48 hours): 0.016 µg/mL (≈ 0.0294 µM)
IC50 ([7]; A549, 48 h): 0.0072 µg/mL (≈ 0.0132 µM)
IC50 ([5]; read-out: Cytotoxicity IC50, MES-SA, Table 1, extract and solvent fractions, 48 hours): 0.0002 µg/mL (≈ 0.000368 µM)
IC50 ([5]; read-out: Cytotoxicity IC50, MES-SA, Table 2, purified extracts, 48 hours): 0.0002 µg/mL (≈ 0.000368 µM)
IC50 ([5]; read-out: Cytotoxicity IC50, MES-SA, Table 3, 48 hours): 0.0051 µg/mL (≈ 0.00938 µM)
IC50 ([5]; read-out: Cytotoxicity IC50, MES-SA, Table 4, 48 hours): 0.0051 µg/mL (≈ 0.00938 µM)
IC50 ([8]; SK-MEL-2, 48 h): 0.0012 µg/mL (≈ 0.00221 µM)

9,14-dihydroxytotara-7-ene-8-oic acid [compound (a)]
Cytotoxicity IC50, SK-OV-3 [6]: 120.05 µg/mL
Cytotoxicity IC50, HCT15 [4]: 117.31 µg/mL
Cytotoxicity IC50, A-549 [7]: 127.16 µg/mL
Cytotoxicity IC50, SK-MEL-2 [8]: 99.45 µg/mL

C=C1CC[C@H]2O[C@]2(C)CC[C@@H]2[C@@H]1CC2(C)C [compound (l), caryophyllene oxide]
inhibition at 50 µg/mL [1]: 70 to 80%
IC50 [2]: 17.7 µg/mL (≈ 80.5 µM)
IC50 ([6]; SK-OV-3, Table 3, 48 hours): 23.7 µg/mL (≈ 108 µM)
IC50 ([4]; Table 3, 48 hours, read-out: Cytotoxicity IC50, HCT15): 26.8 µg/mL (≈ 121 µM)
IC50 ([7]; A549, Table 3, 48 hours): 36.4 µg/mL (≈ 165 µM)
IC50 ([5]; Table 3, 48 hours, read-out: Cytotoxicity IC50, MES-SA): 15.2 µg/mL (≈ 69.2 µM)
IC50 ([8]; SK-MEL-2, Table 3, 48 hours): 18.6 µg/mL (≈ 84.6 µM)

CC(C)c1ccc2c(c1)[C@H](O)CC1[C@](C)(C(=O)O)CCC[C@]21C (stereo partly drawn) [compound (f), 7α-hydroxycallitirisic acid]
inhibition at 50 µg/mL [1]: 70 to 80%
IC50 [2]: 27.4 µg/mL (≈ 86.7 µM)
IC50 [3]: > 30 µg/mL
IC50 [4, 9]: > 30 µg/mL
IC50 [5, 10]: 26.8 µg/mL (≈ 84.7 µM)

C=C1CCC2C(C)(C(=O)O)CCCC2(C)C1CCC(C)CC(=O)O (stereo not drawn) [compound (c), ent-labd-8(17)-ene-15,18-dioic acid]
Cytotoxicity IC50, MES-SA/DX5 ([2]; Table 4, 48 hours): >30.0 µg/mL
Cytotoxicity IC50, HCT15/CL02 [3]: 21.47 µg/mL
Cytotoxicity IC50, HCT15 [4]: >30.0 µg/mL
Cytotoxicity IC50, MES-SA [5]: >30.0 µg/mL
